Activity calls are given as the source filed them.
Assays:
[1] = target: T1, Heat shock factor protein 1 (Mus musculus, UniProt P38532); assay: enhancement of HSF1-driven luciferase signal – cell-based, NIH3T3, luminescence, dose retest, confirmation (AID 435004); assay type: functional;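 also: stress induced by proteasome inhibitor MG132 added 30 min after compound; luciferase reporter driven by HSF1 response element in NIH3T3 cells; actives raise luminescence as potentiators of the MG132 stress response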
T1 sequence (P38532 whole entry): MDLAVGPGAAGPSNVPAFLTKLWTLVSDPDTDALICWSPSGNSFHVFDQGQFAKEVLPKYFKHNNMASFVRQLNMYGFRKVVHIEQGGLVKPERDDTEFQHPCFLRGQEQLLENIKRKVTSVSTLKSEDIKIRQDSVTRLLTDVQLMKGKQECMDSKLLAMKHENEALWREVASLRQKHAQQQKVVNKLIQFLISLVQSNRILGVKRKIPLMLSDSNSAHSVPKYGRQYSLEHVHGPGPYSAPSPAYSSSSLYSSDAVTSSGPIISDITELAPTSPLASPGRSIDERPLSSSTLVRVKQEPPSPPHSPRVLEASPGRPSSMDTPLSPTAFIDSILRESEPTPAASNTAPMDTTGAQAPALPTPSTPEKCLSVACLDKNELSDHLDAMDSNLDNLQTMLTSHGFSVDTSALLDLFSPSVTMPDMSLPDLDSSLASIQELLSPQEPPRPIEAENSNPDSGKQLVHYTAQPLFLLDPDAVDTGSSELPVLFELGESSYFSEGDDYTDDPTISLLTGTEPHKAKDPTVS

[2] = target: Eukaryotic translation initiation factor 4E (Mus musculus, UniProt P63073); assay: blockers of eIF4G binding by eIF4E – biochemical, TR-FRET, dose response (AID 855); assay type: functional;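 also: potency for disrupting eIF4E binding to eIF4GI seen as loss of FRET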
Sequence of Eukaryotic translation initiation factor 4E (P63073 whole entry): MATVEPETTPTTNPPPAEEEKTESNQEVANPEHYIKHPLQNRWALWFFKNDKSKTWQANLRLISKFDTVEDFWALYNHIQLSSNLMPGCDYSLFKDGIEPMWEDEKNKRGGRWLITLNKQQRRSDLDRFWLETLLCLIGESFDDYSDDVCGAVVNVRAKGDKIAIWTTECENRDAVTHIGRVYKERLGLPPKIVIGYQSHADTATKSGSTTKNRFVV

Protein skinhead-1 = target: T2, Protein skinhead-1 (Caenorhabditis elegans, UniProt P34707); assay type: functional
T2 sequence (P34707 whole entry): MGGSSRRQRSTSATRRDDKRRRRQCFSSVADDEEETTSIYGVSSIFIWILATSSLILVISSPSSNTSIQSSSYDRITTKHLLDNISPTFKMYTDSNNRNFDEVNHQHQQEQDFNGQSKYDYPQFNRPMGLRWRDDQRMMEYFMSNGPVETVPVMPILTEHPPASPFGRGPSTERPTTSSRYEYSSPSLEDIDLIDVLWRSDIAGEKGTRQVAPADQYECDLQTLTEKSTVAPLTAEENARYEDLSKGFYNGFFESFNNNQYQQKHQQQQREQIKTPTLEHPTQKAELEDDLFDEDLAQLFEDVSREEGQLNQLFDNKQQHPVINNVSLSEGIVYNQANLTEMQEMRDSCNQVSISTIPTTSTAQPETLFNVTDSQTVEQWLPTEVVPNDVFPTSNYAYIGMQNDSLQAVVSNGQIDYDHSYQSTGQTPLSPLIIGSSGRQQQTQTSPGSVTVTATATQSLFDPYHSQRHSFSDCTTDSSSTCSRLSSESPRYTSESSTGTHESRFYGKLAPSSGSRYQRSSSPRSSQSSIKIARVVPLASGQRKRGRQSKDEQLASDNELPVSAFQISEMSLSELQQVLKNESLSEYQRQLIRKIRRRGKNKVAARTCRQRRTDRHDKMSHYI

Large T antigen = Large T antigen (Simian virus 40, UniProt P03070); assay type: functional, Betapolyomavirus macacae;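 also: Confirmatory-stage PubChem screen for compounds that inhibit SV40 T antigen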
Sequence of Large T antigen (P03070 whole entry): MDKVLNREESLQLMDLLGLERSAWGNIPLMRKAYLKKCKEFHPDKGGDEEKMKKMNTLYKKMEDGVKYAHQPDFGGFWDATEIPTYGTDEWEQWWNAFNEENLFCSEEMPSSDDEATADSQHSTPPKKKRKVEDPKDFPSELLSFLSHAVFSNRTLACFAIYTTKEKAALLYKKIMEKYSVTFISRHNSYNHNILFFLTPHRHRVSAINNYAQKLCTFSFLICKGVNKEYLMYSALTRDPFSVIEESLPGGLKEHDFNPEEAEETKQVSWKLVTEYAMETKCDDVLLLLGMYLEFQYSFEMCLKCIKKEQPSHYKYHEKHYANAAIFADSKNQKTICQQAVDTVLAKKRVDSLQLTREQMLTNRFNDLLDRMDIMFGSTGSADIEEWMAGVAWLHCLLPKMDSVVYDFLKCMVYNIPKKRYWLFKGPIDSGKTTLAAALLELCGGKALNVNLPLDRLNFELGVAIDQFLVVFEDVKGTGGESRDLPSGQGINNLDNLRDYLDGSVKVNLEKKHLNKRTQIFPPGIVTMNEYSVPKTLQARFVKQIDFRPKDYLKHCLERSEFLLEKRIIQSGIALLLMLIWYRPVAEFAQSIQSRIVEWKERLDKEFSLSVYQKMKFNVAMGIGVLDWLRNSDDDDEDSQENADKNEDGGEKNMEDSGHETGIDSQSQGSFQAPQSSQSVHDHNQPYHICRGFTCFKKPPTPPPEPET

[3] = P. falciparum Dd2 growth inhibitors, dose response, SYBR Green, cherry-picked samples (AID 1159567); assay type: functional, cell-based
cells = assay type: functional
[4] = target: T3, Rac GTPase-activating protein 1 (Homo sapiens, UniProt Q9H0H5); assay: blockers of MgcRacGAP-driven Rac1 GTP hydrolysis – biochemical, ADP Hunter fluorescence, primary and confirmatory, confirmation (AID 624330); assay type: functional
T3 sequence (Q9H0H5 whole entry): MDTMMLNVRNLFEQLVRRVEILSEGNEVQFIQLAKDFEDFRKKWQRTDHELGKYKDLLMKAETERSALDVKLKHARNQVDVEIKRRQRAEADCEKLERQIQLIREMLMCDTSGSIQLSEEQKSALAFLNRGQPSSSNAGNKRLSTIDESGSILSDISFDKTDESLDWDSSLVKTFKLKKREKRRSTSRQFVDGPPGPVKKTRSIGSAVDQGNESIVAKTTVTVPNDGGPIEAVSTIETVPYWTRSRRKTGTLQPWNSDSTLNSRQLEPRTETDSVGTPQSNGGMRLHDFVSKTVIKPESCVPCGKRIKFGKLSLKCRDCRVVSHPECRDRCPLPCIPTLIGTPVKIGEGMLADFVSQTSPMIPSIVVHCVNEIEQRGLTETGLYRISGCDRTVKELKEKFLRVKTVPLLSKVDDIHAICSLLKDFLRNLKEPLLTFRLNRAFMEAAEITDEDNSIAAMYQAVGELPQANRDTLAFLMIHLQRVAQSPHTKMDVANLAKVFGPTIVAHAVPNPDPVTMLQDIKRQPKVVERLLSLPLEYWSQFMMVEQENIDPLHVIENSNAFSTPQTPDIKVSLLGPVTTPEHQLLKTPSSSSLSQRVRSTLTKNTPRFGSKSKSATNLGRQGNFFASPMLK

[5] = target: FAD-linked sulfhydryl oxidase ALR (Homo sapiens, UniProt P55789); assay: ALR-catalysed DTT oxidation blockers – biochemical, H2O2 detection, luminescence, cherry-pick, dose response (AID 493248)
Sequence of FAD-linked sulfhydryl oxidase ALR (P55789 whole entry): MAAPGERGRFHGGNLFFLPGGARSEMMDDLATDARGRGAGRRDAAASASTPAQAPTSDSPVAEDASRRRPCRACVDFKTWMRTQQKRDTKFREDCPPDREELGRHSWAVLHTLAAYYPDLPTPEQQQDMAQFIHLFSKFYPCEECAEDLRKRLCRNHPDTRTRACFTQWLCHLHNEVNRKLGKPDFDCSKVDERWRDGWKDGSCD

[6] = Luminescence Cell-Based Dose Response HTS to Identify Activators of Luciferase Translation or Activity in H4 […] Cells. [Related pubchem assays: 1829 (Project Summary), 1814 (Primary HTS)]; assay type: functional
H4 = assay: Luminescence Cell-Based Dose Response HTS to Identify Activators of 5'UTR Stem-Loop Driven Prion Protein mRNA Translation in H4 Neuroglioblastoma Cells. [Related pubchem assays: 1829 (Project Summary), 1814 (Primary HTS)]; assay type: functional; details: Homo sapiens
[7] = target: T4, Replicative DNA helicase DnaB (Mycobacterium tuberculosis, UniProt P9WMR3); assay: DnaB intein splicing inhibitors, dose response, biochemical, cell-free fluorescence (AID 449749); assay type: functional
T4 sequence (P9WMR3 whole entry): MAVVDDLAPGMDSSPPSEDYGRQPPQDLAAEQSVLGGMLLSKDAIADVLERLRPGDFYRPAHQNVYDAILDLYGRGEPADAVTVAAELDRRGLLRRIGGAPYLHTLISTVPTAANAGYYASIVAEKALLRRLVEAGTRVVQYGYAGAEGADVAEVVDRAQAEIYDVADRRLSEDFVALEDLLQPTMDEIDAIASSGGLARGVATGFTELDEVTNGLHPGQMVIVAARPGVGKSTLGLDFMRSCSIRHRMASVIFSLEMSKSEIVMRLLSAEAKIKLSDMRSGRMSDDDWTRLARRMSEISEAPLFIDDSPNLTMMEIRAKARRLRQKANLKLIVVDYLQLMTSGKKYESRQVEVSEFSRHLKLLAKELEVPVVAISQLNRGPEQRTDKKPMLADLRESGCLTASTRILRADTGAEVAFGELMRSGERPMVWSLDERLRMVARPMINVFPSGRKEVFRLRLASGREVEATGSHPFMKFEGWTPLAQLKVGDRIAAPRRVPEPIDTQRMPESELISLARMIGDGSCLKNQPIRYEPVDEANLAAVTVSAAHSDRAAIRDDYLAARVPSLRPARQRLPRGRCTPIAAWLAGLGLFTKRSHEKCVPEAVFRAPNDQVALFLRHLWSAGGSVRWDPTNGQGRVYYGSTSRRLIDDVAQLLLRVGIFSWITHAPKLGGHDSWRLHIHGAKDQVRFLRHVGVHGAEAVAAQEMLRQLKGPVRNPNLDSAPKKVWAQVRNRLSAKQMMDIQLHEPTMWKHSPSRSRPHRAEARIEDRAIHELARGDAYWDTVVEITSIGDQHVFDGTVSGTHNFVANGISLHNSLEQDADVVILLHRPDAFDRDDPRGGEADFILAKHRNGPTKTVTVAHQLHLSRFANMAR

Protein RecA = target: T5, Protein RecA (Mycobacterium tuberculosis, UniProt P9WHJ3); assay: Fluorescence Cell-Free Homogeneous Dose Retest to Identify Inhibitors of RecA-Intein Splicing Activity. [Related pubchem assays (depositor defined):AID2097, AID2223, AID489010, AID492950]; assay type: functional
T5 sequence (P9WHJ3 whole entry): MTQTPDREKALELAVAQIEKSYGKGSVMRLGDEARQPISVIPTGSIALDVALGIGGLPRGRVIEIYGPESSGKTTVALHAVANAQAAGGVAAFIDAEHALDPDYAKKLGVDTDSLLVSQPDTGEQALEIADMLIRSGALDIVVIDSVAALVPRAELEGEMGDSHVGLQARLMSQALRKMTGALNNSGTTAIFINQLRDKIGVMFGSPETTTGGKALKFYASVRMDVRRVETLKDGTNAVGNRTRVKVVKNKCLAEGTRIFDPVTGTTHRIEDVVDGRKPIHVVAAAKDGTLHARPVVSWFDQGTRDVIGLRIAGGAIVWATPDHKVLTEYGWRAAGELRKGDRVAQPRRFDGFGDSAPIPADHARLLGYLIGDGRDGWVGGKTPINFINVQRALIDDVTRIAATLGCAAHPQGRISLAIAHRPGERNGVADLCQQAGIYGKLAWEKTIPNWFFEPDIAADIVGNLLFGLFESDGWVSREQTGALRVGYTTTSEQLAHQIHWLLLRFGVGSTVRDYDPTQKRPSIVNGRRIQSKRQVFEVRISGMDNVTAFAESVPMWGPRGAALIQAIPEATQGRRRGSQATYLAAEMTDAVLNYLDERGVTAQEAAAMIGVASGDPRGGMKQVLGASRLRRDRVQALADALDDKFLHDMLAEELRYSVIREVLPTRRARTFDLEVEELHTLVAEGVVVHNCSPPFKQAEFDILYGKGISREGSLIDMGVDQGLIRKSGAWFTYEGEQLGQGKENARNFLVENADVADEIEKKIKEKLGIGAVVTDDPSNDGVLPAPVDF

COc1ccc(S(=O)(=O)N2CCC(C(=O)NCc3cccnc3)CC2)cc1C
EC50 [1]: > 260 µM (inactive)

Cc1cc(N2CCOCC2)n2nc(C)c(-c3ccccc3)c2n1
IC50 [2]: > 64 µM (inactive)

CCN(C(=O)c1ccco1)c1nc(-c2ccc(OC)cc2)cs1
IC50 (Protein skinhead-1): > 100 µM (inactive)

O=C(c1ccccc1)c1cnc2cc3c(cc2c1O)OCCO3
IC50 (Protein skinhead-1): > 100 µM (inactive)

CCc1ccccc1NC1=NCC(=O)N1C1CCCCC1
EC50 [1]: > 260 µM (inactive)

CCNC(S)=Nc1cc(OCC)c(N2CCOCC2)cc1OCC
IC50 (Large T antigen): > 100 µM (active)

O=C(C1CCCC1)N1CC[C@@H]2[C@H](CO)Nc3ccc(Br)cc3[C@@H]21
AC50 [3]: 12.7 µM (active)

O=C(NCCO)c1cccc(-c2ccc3nncn3c2)c1
IC50 (Protein skinhead-1): > 100 µM (inactive)

CN(C)c1ccc(NC(=O)c2ccc(N3CCOCC3)nc2)cc1
IC50 (Large T antigen): 6.98 µM (active)

O=C(NCCN1C(=O)C2C3C=CC(C3)C2C1=O)Nc1ccccc1O (centres undefined)
IC50 (Protein skinhead-1): > 100 µM (inactive)

CCC(=O)c1ccc(OCC(=O)OCC(=O)c2cc(C)n(C3CC3)c2C)cc1
IC50 (cells): 9.8 µM (active)

COC(=O)CC(=O)N1CCN(c2ccc(Cl)c(Cl)c2)CC1
IC50 (cells): 25.5 µM (active)

CCOC(=O)COc1ccc(C2CC(C)=NN2c2ccccc2)cc1 (centres undefined)
IC50 (cells): 4.31 µM (active)

O=C(CSc1nnc(-c2ccccc2)n1C1CCCCC1)Nc1ccc(S(=O)(=O)Nc2ccccn2)cc1
IC50 [2]: > 64 µM (inactive)

COc1cc(/C=N/Nc2nc(N3CCCC3)nc(N3CCCC3)n2)ccc1O
IC50 (Large T antigen): 15.2 µM (active) | IC50 [4]: 64.3 µM (active)

CCCC(=O)N1CCC2(CC1)CN(Cc1ccncc1)[C@@H](CO)c1[nH]c3cc(OC)ccc3c12
AC50 [3]: 7.29 µM (active)

CCCNC(=O)Nc1ccc2c(c1)OC[C@@H](C)N(CC1CCCC1)C[C@@H](C)[C@H](OC)CN(C)C2=O
AC50 [3]: 6.1 µM (active)

CCC(C)c1ccccc1NC(=O)c1cc(C)no1 (centres undefined)
EC50 [1]: > 260 µM (inactive)

Cc1ccnc(N2CCCC(C(=O)Nc3ccc(C)c(C)c3)C2)n1 (centres undefined)
EC50 [1]: > 260 µM (inactive)

CN1CCC(O)(c2ccccc2)C(C(=O)c2ccccc2)C1 (centres undefined)
IC50 (cells): 36.1 µM (active)

CCOc1ccc(OCC)c(NC(=O)CSCC(=O)O)c1
IC50 (Protein skinhead-1): > 100 µM (inactive)

CN(C)c1ccc(NC(=O)CSc2nc3c(c(=O)[nH]2)CCCC3)cc1
IC50 (Large T antigen): 5.87 µM (active)

COc1ccc2c3c(n(C)c2c1)[C@@H](CO)N(C(=O)Nc1ccc(F)cc1)CC31CN(C(=O)c2ccc3c(c2)OCO3)C1
AC50 [3]: 5.67 µM (active)

C[C@@H]1CN([C@@H](C)CO)C(=O)c2cc(C#Cc3ccccc3)cnc2O[C@H]1CN(C)C(=O)CCN1CCCCC1
AC50 [3]: 3.03 µM (active)

c1cc2c(nn1)CCc1nonc1-2
IC50 (Protein skinhead-1): > 100 µM (inactive)

O=C1CN(C(=O)c2cccs2)c2ccccc2N1
IC50 [2]: > 64 µM (inactive)

CC(C)(C)n1nnnc1C(c1ccncc1)N1CCN(c2ccc(O)cc2)CC1 (centres undefined)
IC50 (Large T antigen): 13.9 µM (active) | AC50 [5]: 3.48 µM (active)

Cc1ccc2c([N+](=O)[O-])c(C)ccc2n1
IC50 (Protein skinhead-1): > 100 µM (inactive)

NC(=O)c1ccccc1/N=C/c1ccc2ccccc2c1
EC50 [6]: 1.14 µM (active) | EC50 (H4): 0.197 µM (active)

CN1CCN(c2ccc(NC(=O)c3ccc(Oc4ccccc4)cc3)cc2)CC1
IC50 (Protein skinhead-1): 23.6 µM (active)

COc1cc(OC)cc(OC(=O)c2ccc3c(=O)n4c(nc3c2)CCC4)c1
IC50 (cells): 9.14 µM (active)

Sc1nnc(-c2ccco2)n1/N=C/c1ccc(Br)s1
IC50 [2]: > 64 µM (inactive)

CC1CN(C(=O)c2cccs2)CCN1C(=O)c1cccs1 (centres undefined)
IC50 (Protein skinhead-1): > 100 µM (inactive)

Cc1ccc(S(=O)(=O)Cc2cc(F)c([N+](=O)[O-])cc2[N+](=O)[O-])cc1
IC50 (Large T antigen): 4.86 µM (active) | AC50 [7]: 16.6 µM (active) | EC50 (Protein RecA): 17.2 µM (active)
